The source made the active and inactive calls. The rule behind the calls is not given here.
Columns and labels:
[1] = tested on: QG-56; assay: Cytotoxicity against human QG56 cells after 48 hrs by MTT assay; type: functional, cell-based
[2] = tested on: HepG2
[3] = tested on: HCT-116
[4] = tested on: Escherichia coli; assay: Antibacterial activity against Escherichia coli ATCC 35218 at 160 uM/ml after 24 hrs by kirby-bauer method; type: functional; conditions: ATCC 35218, 24 h, read-out: IZ
[5] = tested on: Escherichia coli; assay: Antibacterial activity against Escherichia coli ATCC 35218 at 80 uM/ml after 24 hrs by kirby-bauer method; type: functional; conditions: ATCC 35218, 24 h, read-out: IZ
[6] = tested on: Escherichia coli; assay: Antibacterial activity against Escherichia coli ATCC 35218 at 40 uM/ml after 24 hrs by kirby-bauer method; type: functional
[7] = tested on: Escherichia coli; assay: Antibacterial activity against Escherichia coli ATCC 35218 at 20 uM/ml after 24 hrs by kirby-bauer method; type: functional
[8] = tested on: Burkholderia pseudomallei; assay: Antibacterial activity against Burkholderia pseudomallei NTCC 10274 at 160 uM/ml after 24 hrs by kirby-bauer method; type: functional; conditions: NTCC 10274, 24 h, read-out: IZ
[9] = tested on: Burkholderia pseudomallei; assay: Antibacterial activity against Burkholderia pseudomallei NTCC 10274 at 80 uM/ml after 24 hrs by kirby-bauer method; type: functional; conditions: NTCC 10274, 24 h, read-out: IZ
[10] = tested on: Burkholderia pseudomallei; assay: Antibacterial activity against Burkholderia pseudomallei NTCC 10274 at 40 uM/ml after 24 hrs by kirby-bauer method; type: functional
[11] = tested on: Burkholderia pseudomallei; assay: Antibacterial activity against Burkholderia pseudomallei NTCC 10274 at 20 uM/ml after 24 hrs by kirby-bauer method; type: functional
[12] = tested on: Pseudomonas aeruginosa; assay: Antibacterial activity against Pseudomonas aeruginosa ATCC 15499 at 160 uM/ml after 24 hrs by kirby-bauer method; type: functional; conditions: ATCC 15499, 24 h, read-out: IZ
[13] = tested on: Pseudomonas aeruginosa; assay: Antibacterial activity against Pseudomonas aeruginosa ATCC 15499 at 80 uM/ml after 24 hrs by kirby-bauer method; type: functional
[14] = tested on: Pseudomonas aeruginosa; assay: Antibacterial activity against Pseudomonas aeruginosa ATCC 15499 at 40 uM/ml after 24 hrs by kirby-bauer method; type: functional
[15] = tested on: Pseudomonas aeruginosa; assay: Antibacterial activity against Pseudomonas aeruginosa ATCC 15499 at 20 uM/ml after 24 hrs by kirby-bauer method; type: functional
[16] = tested on: Salmonella typhimurium; assay: Antibacterial activity against Salmonella typhimurium ATCC 23564 at 160 uM/ml after 24 hrs by kirby-bauer method; type: functional
[17] = tested on: Staphylococcus aureus; assay: Antibacterial activity against Staphylococcus aureus ATCC 11632 at 160 uM/ml after 24 hrs by kirby-bauer method; type: functional
[18] = tested on: Aspergillus niger; assay: Antifungal activity against Aspergillus niger MTCC 1108 at 160 uM/ml after 48 hrs by paper disc diffusion method; type: functional; conditions: MTCC 1108, 48 h, read-out: IZ
[19] = tested on: Aspergillus niger; assay: Antifungal activity against Aspergillus niger MTCC 1108 at 80 uM/ml after 48 hrs by paper disc diffusion method; type: functional; conditions: MTCC 1108, 48 h, read-out: IZ
[20] = tested on: Aspergillus niger; assay: Antifungal activity against Aspergillus niger MTCC 1108 at 40 uM/ml after 48 hrs by paper disc diffusion method; type: functional
[21] = tested on: Aspergillus niger; assay: Antifungal activity against Aspergillus niger MTCC 1108 at 20 uM/ml after 48 hrs by paper disc diffusion method; type: functional
[22] = tested on: Aspergillus flavus; assay: Antifungal activity against Aspergillus flavus MTCC 1021 at 160 uM/ml after 48 hrs by paper disc diffusion method; type: functional
[23] = tested on: Curvularia lunata; assay: Antifungal activity against Curvularia lunata MTCC 581 at 160 uM/ml after 48 hrs by paper disc diffusion method; type: functional; conditions: MTCC 581, 48 h, read-out: IZ
[24] = tested on: Curvularia lunata; assay: Antifungal activity against Curvularia lunata MTCC 581 at 80 uM/ml after 48 hrs by paper disc diffusion method; type: functional; conditions: MTCC 581, 48 h, read-out: IZ
[25] = tested on: Curvularia lunata; assay: Antifungal activity against Curvularia lunata MTCC 581 at 40 uM/ml after 48 hrs by paper disc diffusion method; type: functional; conditions: MTCC 581, 48 h, read-out: IZ
[26] = tested on: Curvularia lunata; assay: Antifungal activity against Curvularia lunata MTCC 581 at 20 uM/ml after 48 hrs by paper disc diffusion method; type: functional; conditions: MTCC 581, 48 h, read-out: IZ
[27] = tested on: Trichoderma viride; assay: Antifungal activity against Trichoderma viride MTCC 1107 at 160 uM/ml after 48 hrs by paper disc diffusion method; type: functional; conditions: MTCC 1107, 48 h, read-out: IZ
[28] = tested on: Trichoderma viride; assay: Antifungal activity against Trichoderma viride MTCC 1107 at 80 uM/ml after 48 hrs by paper disc diffusion method; type: functional; conditions: MTCC 1107, 48 h, read-out: IZ
[29] = tested on: Trichoderma viride; assay: Antifungal activity against Trichoderma viride MTCC 1107 at 40 uM/ml after 48 hrs by paper disc diffusion method; type: functional; conditions: MTCC 1107, 48 h, read-out: IZ
[30] = tested on: Trichoderma viride; assay: Antifungal activity against Trichoderma viride MTCC 1107 at 20 uM/ml after 48 hrs by paper disc diffusion method; type: functional; conditions: MTCC 1107, 48 h, read-out: IZ
[31] = tested on: Salmonella typhimurium; assay: Antibacterial activity against Salmonella typhimurium ATCC 23564 at 80 uM/ml after 24 hrs by kirby-bauer method; type: functional, Salmonella enterica subsp. enterica serovar Typhimurium; conditions: Salmonella enterica, ATCC 23564, 24 h; read-out: IZ
[32] = tested on: Salmonella typhimurium; assay: Antibacterial activity against Salmonella typhimurium ATCC 23564 at 40 uM/ml after 24 hrs by kirby-bauer method; type: functional; conditions: Salmonella enterica subsp. enterica serovar Typhimurium
[33] = tested on: Salmonella typhimurium; assay: Antibacterial activity against Salmonella typhimurium ATCC 23564 at 20 uM/ml after 24 hrs by kirby-bauer method; type: functional; conditions: Salmonella enterica subsp. enterica serovar Typhimurium

| Structure (SMILES) | IC50 [1] | IC50 [2] | IC50 [3] | zone of inhibition at 160 µM [4] | zone of inhibition at 80 µM [5] | inhibition zone (IZ) [6] | inhibition zone (IZ) [7] | zone of inhibition at 160 µM [8] | zone of inhibition at 80 µM [9] | zone of inhibition at 160 µM [12] | inhibition zone (IZ) [17] | zone of inhibition at 160 µM [18] | zone of inhibition at 80 µM [19] | inhibition zone (IZ) [20] | inhibition zone (IZ) [21] | inhibition zone (IZ) [22] | zone of inhibition at 160 µM [23] | zone of inhibition at 80 µM [24] | zone of inhibition at 40 µM [25] | zone of inhibition at 20 µM [26] | further results |
| --- | --- | --- | --- | --- | --- | --- | --- | --- | --- | --- | --- | --- | --- | --- | --- | --- | --- | --- | --- | --- | --- |
| COc1cccc2c1C(=O)c1c(O)c3c(c(O)c1C2=O)C[C@@](O)(C(=O)CO)C[C@@H]3O[C@H]1C[C@H](N)[C@H](O)[C@H](C)O1 [DOXORUBICIN] | 2.5 uM/ml | 2.5 uM/ml | 5 uM/ml | – | – | – | – | – | – | – | – | – | – | – | – | – | – | – | – | – | – |
| COc1ccc(C2NC(=O)NC(/C=C/c3ccc(O)c(OC)c3)=C2C(=O)/C=C/c2ccc(O)c(OC)c2)cc1 (stereo unspecified) | 50 uM/ml | 50 uM/ml | 100 uM/ml | 12 mm | 9 mm | inactive | inactive | 23 mm | 19 mm | 23 mm | inactive | 11 mm | 9 mm | inactive | inactive | inactive | 17 mm | 16 mm | 14 mm | 11 mm | zone of inhibition at 40 µM ([10]; NTCC 10274, 24 h, read-out: IZ): 15 mm; zone of inhibition at 20 µM ([11]; NTCC 10274, 24 h, read-out: IZ): 11 mm; zone of inhibition at 80 µM ([13]; ATCC 15499, 24 h, read-out: IZ): 21 mm; zone of inhibition at 40 µM ([14]; ATCC 15499, 24 h, read-out: IZ): 19 mm; zone of inhibition at 20 µM ([15]; ATCC 15499, 24 h, read-out: IZ): 13 mm; inhibition zone (IZ) ([16]; Salmonella enterica subsp. enterica serovar Typhimurium): inactive; zone of inhibition at 160 µM [27]: 19 mm; zone of inhibition at 80 µM [28]: 17 mm; zone of inhibition [29]: 16 mm; zone of inhibition at 20 µM [30]: 14 mm |
| COc1cc(/C=C/C(=O)C2=C(/C=C/c3ccc(O)c(OC)c3)NC(=O)NC2c2ccc(C)cc2)ccc1O (stereo unspecified) | 100 uM/ml | 50 uM/ml | 50 uM/ml | 11 mm | 9 mm | inactive | inactive | 10 mm | 9 mm | 10 mm | inactive | 12 mm | 9 mm | inactive | inactive | inactive | 22 mm | 18 mm | 16 mm | 12 mm | inhibition zone (IZ) [10]: inactive; inhibition zone (IZ) [11]: inactive; inhibition zone (IZ) [13]: inactive; inhibition zone (IZ) [14]: inactive; inhibition zone (IZ) [15]: inactive; zone of inhibition at 160 µM ([16]; Salmonella enterica, ATCC 23564, 24 h, read-out: IZ): 11 mm; zone of inhibition at 80 µM [31]: 9 mm; inhibition zone (IZ) [32]: inactive; inhibition zone (IZ) [33]: inactive; zone of inhibition at 160 µM [27]: 18 mm; zone of inhibition at 80 µM [28]: 16 mm; zone of inhibition [29]: 15 mm; zone of inhibition at 20 µM [30]: 12 mm |

— ChEMBL document CHEMBL2016493, “Design, synthesis, synergistic antimicrobial activity and cytotoxicity of 4-aryl substituted 3,4-dihydropyrimidinones of curcumin” (Bioorg Med Chem Lett, 2012)
